# Tests used:
# [1] = molecular target: T1, human MC1R (Homo sapiens, UniProt Q01726); assay: cAMP assay (LANCE) in T-Rex-293 cells expressing MC1R; type: cell-based; details: for Emax: T-REx-293, read-out: % Effect hMC1R cAMP; for EC50: cAMP assay, mean (± SEM) of at least three independent experiments, read-out: EC50 hMC1R cAMP
# T1 construct: expressed in transfected cells
# [2] = molecular target: T2, human MC4R (Homo sapiens, UniProt P32245); assay: cAMP assay (LANCE) in T-Rex-293 cells expressing MC4R; type: cell-based; details: for EC50: cAMP assay, mean (± SEM) of at least three independent experiments, read-out: EC50 hMC4R cAMP
# T2 construct: expressed in transfected cells
# T2 sequence (P32245 whole entry): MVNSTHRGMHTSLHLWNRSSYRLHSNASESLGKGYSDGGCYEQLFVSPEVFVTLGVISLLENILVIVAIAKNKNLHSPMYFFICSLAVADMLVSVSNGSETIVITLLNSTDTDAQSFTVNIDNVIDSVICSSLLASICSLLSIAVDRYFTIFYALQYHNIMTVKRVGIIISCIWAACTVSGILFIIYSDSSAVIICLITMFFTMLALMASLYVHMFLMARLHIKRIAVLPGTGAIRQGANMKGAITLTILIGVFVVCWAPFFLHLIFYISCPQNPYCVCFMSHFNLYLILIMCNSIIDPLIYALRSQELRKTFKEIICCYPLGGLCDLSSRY
# [3] = molecular target: T1, human MC1R; assay: Melanocortin receptor radioligand binding (SPA, [125I]-NDP-α-MSH displacement), MC1R; details: competitive binding, mean (± SEM) of at least three independent experiments, read-out: IC50 hMC1R binding
# [4] = molecular target: T3, human MC3R (Homo sapiens, UniProt P41968); assay: cAMP assay (LANCE) in T-Rex-293 cells expressing MC3R; type: cell-based; details: for EC50: cAMP assay, mean (± SEM) of at least three independent experiments, read-out: EC50 hMC3R cAMP
# T3 construct: expressed in transfected cells
# T3 sequence (P41968 whole entry): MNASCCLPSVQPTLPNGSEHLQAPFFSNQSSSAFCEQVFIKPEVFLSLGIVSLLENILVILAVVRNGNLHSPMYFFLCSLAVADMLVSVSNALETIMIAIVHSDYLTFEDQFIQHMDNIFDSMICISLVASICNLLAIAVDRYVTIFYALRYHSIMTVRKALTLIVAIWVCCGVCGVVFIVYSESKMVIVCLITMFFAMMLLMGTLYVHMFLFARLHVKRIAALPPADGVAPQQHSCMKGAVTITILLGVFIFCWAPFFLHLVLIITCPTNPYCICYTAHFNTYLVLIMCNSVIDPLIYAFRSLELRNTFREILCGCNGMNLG
# [5] = molecular target: T2, human MC4R; assay: Melanocortin receptor radioligand binding (SPA, [125I]-NDP-α-MSH displacement), MC4R; details: competitive binding, mean (± SEM) of at least three independent experiments, read-out: IC50 hMC4R binding
# [6] = molecular target: T3, human MC3R; assay: Melanocortin receptor radioligand binding (SPA, [125I]-NDP-α-MSH displacement), MC3R; details: competitive binding, mean (± SEM) of at least three independent experiments, read-out: IC50 hMC3R binding
# [7] = molecular target: T4, human MC5R (Homo sapiens, UniProt P33032); assay: Melanocortin receptor radioligand binding (SPA, [125I]-NDP-α-MSH displacement), MC5R; details: for IC50: competitive binding, [125I]-NDP-α-MSH, mean (± SEM) of at least three independent experiments, read-out: IC50 hMC5R binding
# T4 construct: expressed in transfected cells; host or cells: HEK293-6E suspension cells, transient expression; membranes
# T4 sequence (P33032 whole entry): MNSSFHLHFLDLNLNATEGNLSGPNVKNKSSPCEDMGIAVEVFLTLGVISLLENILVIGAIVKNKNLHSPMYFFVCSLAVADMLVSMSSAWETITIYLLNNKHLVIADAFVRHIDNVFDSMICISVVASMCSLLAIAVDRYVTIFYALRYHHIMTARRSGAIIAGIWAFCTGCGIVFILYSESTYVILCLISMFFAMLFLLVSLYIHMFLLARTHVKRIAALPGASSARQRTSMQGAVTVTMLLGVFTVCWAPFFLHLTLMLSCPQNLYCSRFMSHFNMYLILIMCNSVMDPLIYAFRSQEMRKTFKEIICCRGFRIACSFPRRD
# [8] = Emax (curve plateau), relative to NDP-α-MSH, NA = No Activity detected, threshold 20% effect
# T1 sequence (Q01726 whole entry): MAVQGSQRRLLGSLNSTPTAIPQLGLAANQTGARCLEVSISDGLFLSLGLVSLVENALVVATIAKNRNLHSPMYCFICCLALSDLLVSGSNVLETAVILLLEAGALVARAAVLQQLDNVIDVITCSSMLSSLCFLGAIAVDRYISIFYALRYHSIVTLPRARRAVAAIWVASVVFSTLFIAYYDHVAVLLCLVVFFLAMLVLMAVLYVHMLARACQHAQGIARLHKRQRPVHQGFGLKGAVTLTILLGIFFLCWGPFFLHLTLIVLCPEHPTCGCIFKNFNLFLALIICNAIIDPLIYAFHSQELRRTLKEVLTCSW
SMILES,Emax [1] [%],EC50 [1] [µM],EC50 [2] [µM],IC50 [3] [µM],EC50 [4] [µM],IC50 [5] [µM],IC50 [6] [µM],IC50 [7] [µM],"selectivity for MC5R against MC1R ([7]; ratio of binding IC50, MC1R versus MC5R) [fold]","selectivity for MC5R against MC3R ([7]; ratio of binding IC50, MC3R versus MC5R) [fold]","selectivity for MC5R against MC4R ([7]; ratio of binding IC50, MC4R versus MC5R) [fold]","% Effect hMC4R cAMP [2, 8] [%]","% Effect hMC3R cAMP [4, 8] [%]","% Effect hMC1R cAMP at 100 µM ([1]; % effect at 100 µM, compounds not reaching an upper plateau (§)) [%]","% Effect hMC1R cAMP at 10 µM ([1]; % effect at 10 µM, compounds not reaching an upper plateau (#)) [%]"
"CN1C(=O)[C@@H]2[C@H](C1=O)[C@H]1N[C@@H]2c2ccc(cc2)C(=O)NCCCC[C@@H](C(=O)N[C@@H](Cc2ccc(O)cc2)C(N)=O)NC(=O)[C@H](CC(N)=O)NC(=O)[C@H](Cc2ccccc2)NC(=O)[C@H](Cc2ccccc2)NC(=O)[C@H](CCCNC(=N)N)NC(=O)[C@H](Cc2ccccc2)N(C)C1=O [J1-major, [ I-FRFFNK ]Y]",51,17 ± 5,> 100,> 100,> 100,> 100,> 100,41 ± 9,–,–,–,–,–,–,–
"CN1C(=O)[C@H]2N[C@@H](c3ccc(cc3)C(=O)NCCCC[C@@H](C(=O)NCC(N)=O)NC(=O)[C@H](CC(N)=O)NC(=O)[C@H](Cc3ccccc3)NC(=O)[C@H](Cc3ccccc3)NC(=O)[C@H](CCCNC(=N)N)NC(=O)[C@@H]1Cc1ccccc1)[C@H]1C(=O)N(c3ccccc3)C(=O)[C@H]12 [J3-major*, [ II-FRFFNK ]G]",63,14 ± 5,> 100,78 ± 2,> 100,> 100,> 100,54 ± 6,–,–,–,–,–,–,–
"CN1C(=O)[C@@H]2N[C@H](c3ccc(cc3)C(=O)NCCCC[C@@H](C(=O)NCC(N)=O)NC(=O)[C@H](CC(N)=O)NC(=O)[C@H](Cc3ccccc3)NC(=O)[C@H](Cc3ccccc3)NC(=O)[C@H](CCCNC(=N)N)NC(=O)[C@@H]1Cc1ccccc1)[C@@H]1C(=O)N(c3ccccc3)C(=O)[C@@H]12 [J3-minor*, [ II-FRFFNK ]G]",–,> 100,> 100,13 ± 1,> 100,17 ± 2,21 ± 1,6.2 ± 0.5,–,–,–,–,–,–,–
"CN1C(=O)[C@@H]2[C@H](C1=O)[C@H]1N[C@@H]2C(=O)N(C)[C@@H](Cc2ccccc2)C(=O)N[C@@H](CCCNC(=N)N)C(=O)N[C@H](Cc2ccccc2)C(=O)N[C@H](Cc2ccccc2)C(=O)N[C@@H](CC(N)=O)C(=O)N[C@H](C(=O)NCC(N)=O)CCCCNC(=O)c2ccc1cc2 [K2-minor, [I-FRffNK ]G]",–,> 10,> 10,> 10,> 10,> 10,> 10,> 10,–,–,–,–,–,–,–
"CN1C(=O)[C@@H]2N[C@H](c3ccc(cc3)C(=O)NCCCC[C@@H](C(=O)NCC(N)=O)NC(=O)[C@H](CC(N)=O)NC(=O)[C@@H](Cc3ccccc3)NC(=O)[C@@H](Cc3ccccc3)NC(=O)[C@H](CCCNC(=N)N)NC(=O)[C@@H]1Cc1ccccc1)[C@@H]1C(=O)N(c3ccccc3)C(=O)[C@@H]12 [K3-major, [II-FRffNK ]G]",42,> 10,> 10,> 10,> 10,> 10,> 10,4.2 ± 0.1,–,–,–,–,–,–,–
"CN1C(=O)[C@H]2N[C@@H](c3ccc(cc3)C(=O)NCCCC[C@@H](C(=O)NCC(N)=O)NC(=O)[C@H](CC(N)=O)NC(=O)[C@@H](Cc3ccccc3)NC(=O)[C@@H](Cc3ccccc3)NC(=O)[C@H](CCCNC(=N)N)NC(=O)[C@@H]1Cc1ccccc1)[C@H]1C(=O)N(c3ccccc3)C(=O)[C@H]12 [K3-minor, [II-FRffNK ]G]",–,> 10,> 10,> 10,> 10,> 10,> 10,> 10,–,–,–,–,–,–,–
"COc1ccc(N2C(=O)[C@@H]3[C@H](C2=O)[C@H]2N[C@@H]3C(=O)N(C)[C@@H](Cc3ccccc3)C(=O)N[C@@H](CCCNC(=N)N)C(=O)N[C@H](Cc3ccccc3)C(=O)N[C@H](Cc3ccccc3)C(=O)N[C@@H](CC(N)=O)C(=O)N[C@H](C(=O)NCC(N)=O)CCCCNC(=O)c3ccc2cc3)cc1 [K4-minor, [III-FRffNK ]G]",–,> 100,> 100,> 100,> 100,> 100,> 100,91 ± 3,–,–,–,–,–,23,–
"COc1cc(N2C(=O)[C@@H]3[C@H](C2=O)[C@H]2N[C@@H]3c3ccc(cc3)C(=O)NCCCC[C@@H](C(=O)NCC(N)=O)NC(=O)[C@H](CC(N)=O)NC(=O)[C@@H](Cc3ccccc3)NC(=O)[C@@H](Cc3ccccc3)NC(=O)[C@H](CCCNC(=N)N)NC(=O)[C@H](Cc3ccccc3)N(C)C2=O)cc(OC)c1OC [K5-major, [XI-FRffNK ]G]",–,> 10,> 10,> 10,> 10,> 10,> 10,> 10,–,–,–,–,–,–,–
"CN1C(=O)[C@H]2N[C@@H](c3ccc(cc3)C(=O)NCCCC[C@@H](C(=O)N[C@@H](Cc3ccc(O)cc3)C(N)=O)NC(=O)[C@H](Cc3ccccc3)NC(=O)[C@H](Cc3ccccc3)NC(=O)[C@H](CCCNC(=N)N)NC(=O)[C@@H]1Cc1ccccc1)[C@H]1C(=O)N(c3ccccc3)C(=O)[C@H]12 [N1-major*, [II-FRFFK ]Y]",–,> 10,> 10,> 10,> 10,> 10,> 10,> 10,–,–,–,–,–,–,33
"CN1C(=O)[C@H]2N[C@@H](c3ccc(cc3)C(=O)NCCCC[C@@H](C(=O)NCC(N)=O)NC(=O)[C@H](Cc3ccccc3)NC(=O)[C@H](Cc3ccccc3)NC(=O)[C@H](CCCNC(=N)N)NC(=O)[C@@H]1Cc1ccccc1)[C@H]1C(=O)N(c3ccccc3)C(=O)[C@H]12 [N2-major*, [II-FRFFK ]G]",46,14 ± 4,> 100,> 100,> 100,> 100,> 100,38 ± 2,–,–,–,–,–,–,–

# Now those with a lower EC50 [1], led by results:
Emax [1] [%],EC50 [1] [µM],EC50 [2] [µM],IC50 [3] [µM],EC50 [4] [µM],IC50 [5] [µM],IC50 [6] [µM],IC50 [7] [µM],"selectivity for MC5R against MC1R ([7]; ratio of binding IC50, MC1R versus MC5R) [fold]","selectivity for MC5R against MC3R ([7]; ratio of binding IC50, MC3R versus MC5R) [fold]","selectivity for MC5R against MC4R ([7]; ratio of binding IC50, MC4R versus MC5R) [fold]","% Effect hMC4R cAMP [2, 8] [%]","% Effect hMC3R cAMP [4, 8] [%]","% Effect hMC1R cAMP at 100 µM ([1]; % effect at 100 µM, compounds not reaching an upper plateau (§)) [%]","% Effect hMC1R cAMP at 10 µM ([1]; % effect at 10 µM, compounds not reaching an upper plateau (#)) [%]",SMILES
40,9.3 ± 3.6,> 100,81 ± 3,> 100,91 ± 5,85 ± 6,6.5 ± 0.9,–,–,–,–,–,–,–,"C[C@@H]1NC(=O)[C@H](CC(N)=O)NC(=O)[C@H](Cc2ccccc2)NC(=O)[C@H](Cc2ccccc2)NC(=O)[C@H](CCCNC(=N)N)NC(=O)[C@H](Cc2ccccc2)N(C)C(=O)[C@H]2N[C@@H](c3ccc(cc3)C(=O)NCCCC[C@@H](C(=O)N[C@@H](Cc3ccc(O)cc3)C(N)=O)NC1=O)[C@H]1C(=O)N(c3ccccc3)C(=O)[C@H]12 [F2-minor, [ II-FRFFNAK ]Y]"
46,6.4 ± 0.3,> 100,32 ± 1,> 100,38 ± 6,39 ± 2,11 ± 1,–,–,–,–,–,–,–,"CN1C(=O)[C@H]2N[C@@H](c3ccc(cc3)C(=O)NCCCC[C@@H](C(=O)N[C@@H](Cc3ccc(O)cc3)C(N)=O)NC(=O)[C@H](CC(N)=O)NC(=O)[C@H](Cc3ccccc3)NC(=O)[C@H](Cc3ccccc3)NC(=O)[C@H](CCCNC(=N)N)NC(=O)[C@@H]1Cc1ccccc1)[C@H]1C(=O)N(c3ccccc3)C(=O)[C@H]12 [J2-major, [ II-FRFFNK ]Y]"
47,4.1 ± 0.4,> 100,31 ± 3,> 100,54 ± 4,19 ± 3,4.1,7,5,13,–,–,–,–,"CN1C(=O)[C@@H]2N[C@H](c3ccc(cc3)C(=O)NCCCC[C@@H](C(=O)N[C@@H](Cc3ccc(O)cc3)C(N)=O)NC(=O)[C@H](CC(N)=O)NC(=O)[C@@H](Cc3ccccc3)NC(=O)[C@@H](Cc3ccccc3)NC(=O)[C@H](CCCNC(=N)N)NC(=O)[C@@H]1Cc1ccccc1)[C@@H]1C(=O)N(c3ccccc3)C(=O)[C@@H]12 [K1-major, [II-FRffNK ]Y]"
85,3.9 ± 0.5,3.7 ± 0.2,58 ± 1,6.4 ± 1.1,> 100,57 ± 1,16 ± 1,–,–,–,66,26,–,–,"COc1ccc(N2C(=O)[C@@H]3[C@H](C2=O)[C@H]2N[C@@H]3c3ccc(cc3)C(=O)NCCCC[C@@H](C(=O)NCC(N)=O)NC(=O)[C@H](CC(N)=O)NC(=O)[C@@H](Cc3ccccc3)NC(=O)[C@@H](Cc3ccccc3)NC(=O)[C@H](CCCNC(=N)N)NC(=O)[C@H](Cc3ccccc3)N(C)C2=O)cc1 [K4-major, [III-FRffNK ]G]"
38,1.8 ± 0.3,> 10,> 10,> 10,> 10,> 10,> 10,–,–,–,–,–,–,–,"C[C@@H]1NC(=O)[C@H](CC(N)=O)NC(=O)[C@@H](Cc2ccccc2)NC(=O)[C@@H](Cc2ccccc2)NC(=O)[C@H](CCCNC(=N)N)NC(=O)[C@H](Cc2ccccc2)N(C)C(=O)[C@@H]2N[C@H](c3ccc(cc3)C(=O)NCCCC[C@@H](C(=O)N[C@@H](Cc3ccc(O)cc3)C(N)=O)NC1=O)[C@@H]1C(=O)N(C)C(=O)[C@@H]12 [G1-major, [I-FRffNAK ]Y]"
